This is an account of results in article PMC9940430, “Angiotensin converting enzyme (ACE) inhibitors activity from purified compounds Fructus Phaleria macrocarpa (Scheff) Boerl” (BMC Complementary Medicine and Therapies, 2023).

Converted amounts (≈) assume the structure as drawn.

The target in assay [1] is T1, angiotensin-converting enzyme (ACE) (Homo sapiens, UniProt P12821). Nature of the assay: In-vitro ACE inhibitor activity assay (HHL substrate, hippuric acid read at 228 nm). The assay is classed as biochemical. As to conditions: for inhibition at 1.25 µg/mL: ACE inhibition at a concentration of 1.25 μg/ml, read-out: inhibitory activity ± SD (%); for IC50: ACE inhibition, purified compounds and captopril, read-out: IC50 ± SD (μg/mL) (converted). The procedure:
This assay was conducted on extract, fraction and three purified compounds using captopril as a positive control at the concentration of 0,01, 0,05, 0,5, 1,25 dan 6,25 mM. In a test tube, 50 μL of the solution assay was added with 50 μL of 8 mM hippuryl-histidyl-leucine (HHL) substrate solution and pre-incubated at 37 °C for 10 minutes, followed by the addition of 100 μL of the ACE, homogenization by vortex mixer, and incubation for 90 minutes at 37 °C. Further, 250 μL of 1 N HCl was added to the mixture to stop the enzymatic reaction. The hippuric acid was produced, while the enzymatic reaction was extracted by 1.5 mL ethyl acetate and later separated from the mixture by centrifugation. The mixture was then concentrated by heating at 100 °C and dispersed in 3 mL of demineralized aqueous to have its absorbance measured by spectrophotometer at 228 nm. The hippuric acid concentration was utilized to calculate the percentage of inhibition (%), and the IC50 value was then calculated using the percentage inhibition obtained. […] An inhibition kinetics test was employed to determine the inhibition mechanism of these compounds. It was performed type of Inhibition was determined by the Lineweaver-Burk method to acquire the Michaelis-Menten kinetic constant. The Michaelis-Menten kinetic constant (Km) is assessed based on the regression equation y = a + bx, in which x is the substrate concentration [S], and y is the absorbance of the sample [18].
Additionally, most chemicals originating from plants positively affect other aspects of normal metabolism. […] The activity of ACE inhibition from medicines or plant extracts can be detected using various ACE inhibitory activity assay methods. Using a substrate of hippuryl-histidyl-leucine (HHL), we used the Cushman and Cheung approach to the data from this study. The ACE will hydrolyze HHL into hippuric acid (HA). A UV-visible spectrophotometer was used to measure the HA at a wavelength of 228 nm to describe the ACE activity. […] Most ACE inhibitory plant metabolites are peptides, protein hydrolysates, phenolics, flavonoids, terpenoids, and alkaloids.

For a further assay, the system named is leukemia l1210 cell line. Also on record: method as in doi:10.22146/ijc.21576. Conditions: isolated from the bark of Mahkota Dewa; cited from earlier work.
In assay [2] the target is T1, angiotensin-converting enzyme (ACE). Nature of the assay: Enzyme inhibition kinetics of ACE (Lineweaver-Burk plot). As to conditions: for type of inhibition kinetics: Lineweaver-Burk, HHL substrate 4, 6, 8, 10 and 12 μg/ml. Format: biochemical. The protocol: This assay was conducted on extract, fraction and three purified compounds using captopril as a positive control at the concentration of 0,01, 0,05, 0,5, 1,25 dan 6,25 mM. In a test tube, 50 μL of the solution assay was added with 50 μL of 8 mM hippuryl-histidyl-leucine (HHL) substrate solution and pre-incubated at 37 °C for 10 minutes, followed by the addition of 100 μL of the ACE, homogenization by vortex mixer, and incubation for 90 minutes at 37 °C. Further, 250 μL of 1 N HCl was added to the mixture to stop the enzymatic reaction. The hippuric acid was produced, while the enzymatic reaction was extracted by 1.5 mL ethyl acetate and later separated from the mixture by centrifugation. The mixture was then concentrated by heating at 100 °C and dispersed in 3 mL of demineralized aqueous to have its absorbance measured by spectrophotometer at 228 nm. The hippuric acid concentration was utilized to calculate the percentage of inhibition (%), and the IC50 value was then calculated using the percentage inhibition obtained. The IC50 value was determined as the peptide concentration in mg/mL was demanded to reduce 50% of ACE activity by regression analysis of the ACE inhibition versus ACE concentration percentage. The examination of the kinetics of enzyme inhibition was carried out at several concentrations of HHL substrates, which are 4, 6, 8, 10, and 12 μg/ml. The samples administered were compound with the lowest IC50 value. An inhibition kinetics test was employed to determine the inhibition mechanism of these compounds. It was performed type of Inhibition was determined by the Lineweaver-Burk method to acquire the Michaelis-Menten kinetic constant. The Michaelis-Menten kinetic constant (Km) is assessed based on the regression equation y = a + bx, in which x is the substrate concentration [S], and y is the absorbance of the sample [18].
Kinetic analysis of ACE inhibition was conducted by administering the Lineweaver-Burk plot (Fig. 4). […] The Lineweaver-Burk graph is generated from relationship of 1/[S] to 1/V.
The active compound with the smallest IC50 value was examined for enzyme inhibition kinetics. […] However, the Km values are different based on the calculation results of the Michaelis-Menten constant. […] Competitive inhibitors compete with the substrate for the enzyme’s active site so that the enzyme cannot produce an enzyme-substrate complex. However, when the concentration of the competitive inhibitor is greater than that of the substrate, it binds to the active binding site to form an enzyme inhibitor complex (EI), which ultimately prevents the formation of any product. In a typical enzymatic reaction, Vmax is the reaction’s maximal rate. Km, also known as the Michaelis-Menten constant, is the substrate concentration halfway between Vmax and Km. […]

T1 sequence (P12821 30-1306, species assumed): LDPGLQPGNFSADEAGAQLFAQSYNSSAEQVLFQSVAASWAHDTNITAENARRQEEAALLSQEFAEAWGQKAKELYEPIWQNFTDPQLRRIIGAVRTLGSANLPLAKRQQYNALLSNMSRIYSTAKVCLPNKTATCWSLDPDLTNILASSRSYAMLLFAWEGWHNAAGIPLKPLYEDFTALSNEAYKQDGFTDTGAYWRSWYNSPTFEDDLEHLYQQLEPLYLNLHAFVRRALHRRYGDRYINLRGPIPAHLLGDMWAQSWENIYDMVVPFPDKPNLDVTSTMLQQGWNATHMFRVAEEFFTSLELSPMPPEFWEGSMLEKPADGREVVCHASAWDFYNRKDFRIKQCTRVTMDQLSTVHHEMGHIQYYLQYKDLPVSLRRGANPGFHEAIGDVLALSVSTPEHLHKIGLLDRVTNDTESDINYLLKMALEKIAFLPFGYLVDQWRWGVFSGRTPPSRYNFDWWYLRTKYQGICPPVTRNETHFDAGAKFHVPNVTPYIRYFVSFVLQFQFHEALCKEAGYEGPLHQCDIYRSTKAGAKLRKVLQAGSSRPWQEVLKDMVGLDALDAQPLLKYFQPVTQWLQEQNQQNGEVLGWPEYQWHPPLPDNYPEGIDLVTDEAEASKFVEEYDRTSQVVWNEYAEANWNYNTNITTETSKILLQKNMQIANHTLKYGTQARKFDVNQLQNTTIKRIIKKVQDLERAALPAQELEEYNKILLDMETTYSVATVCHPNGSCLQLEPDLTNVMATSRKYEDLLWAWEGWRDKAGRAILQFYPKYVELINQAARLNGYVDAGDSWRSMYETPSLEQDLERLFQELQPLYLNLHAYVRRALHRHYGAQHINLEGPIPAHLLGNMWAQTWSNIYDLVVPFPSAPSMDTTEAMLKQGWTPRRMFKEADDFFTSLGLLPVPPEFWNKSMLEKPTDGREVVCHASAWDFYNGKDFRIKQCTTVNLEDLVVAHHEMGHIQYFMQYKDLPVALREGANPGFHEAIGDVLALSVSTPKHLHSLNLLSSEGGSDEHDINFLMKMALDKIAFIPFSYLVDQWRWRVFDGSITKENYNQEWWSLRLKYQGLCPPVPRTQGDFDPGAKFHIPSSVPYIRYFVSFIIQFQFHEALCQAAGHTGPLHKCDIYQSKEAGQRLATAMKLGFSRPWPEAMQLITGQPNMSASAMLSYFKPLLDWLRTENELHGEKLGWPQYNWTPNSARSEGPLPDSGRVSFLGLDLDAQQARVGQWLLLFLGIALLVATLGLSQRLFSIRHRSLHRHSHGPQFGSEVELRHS

As to `COc1cc(O)cc(OC2OC(CO)C(O)C(O)C2O)c1C(=O)c1ccc(O)cc1` [Compound 2, 4,4′-dihydroxy-6-methoxybenzophenone-2-O-β-D-glucopyranoside], in assay [1], the inhibition at 1.25 µg/mL is 85.17 ± 0.23% and the IC50 was 166 nM.

Turning to `COc1cc(O)c(C(=O)c2ccc(O)cc2)c(OC2OC(CO)C(O)C(O)C2O)c1` [Compound 1, 6,4′-dihydroxy-4-methoxybenzophenone-2-O-β-D-glucopyranoside], in assay [1], the inhibition at 1.25 µg/mL was 77.48 ± 0.5% and the IC50 was 130 nM.

As to `COc1cc(O)c(C(=O)c2ccc(O)cc2)c(OC2OC(CO)C(O)C(O)C2O)c1` [6,4′-dihydroxy-6-methoxybenzophenone-2-O-β-D-glucopyranoside], the IC50 in the assay on leukemia l1210 cell line is 5.1 µg/mL (≈ 12.1 µM).

As to `O=c1c2cc(O)c(O)cc2oc2cc(O)c([C@@H]3O[C@H](CO)[C@@H](O)[C@H](O)[C@H]3O)c(O)c12` [Compound 3, mangiferin], the “Vmax, isolate versus without inhibitor” value in assay [2] (Lineweaver-Burk plot, Fig. 4) is on record as “almost the same”. Further, in assay [2] (listed as compound 3), the “type of inhibition kinetics” value is “competitively inhibiting”. In assay [2] (listed as mangiferin), the “type of inhibition kinetics” value is “competitive inhibition”. Moreover, in assay [2] (Michaelis-Menten constant, Fig. 4), the “Km, isolate versus without inhibitor” value is reported as “different”. Further, in assay [1], the inhibition at 1.25 µg/mL came out at 86.99 ± 0.02% and the IC50 is 59.2 nM.
